Where two headings read alike, the source gives them in different places.
Molecular target: T1, rat mGluR5 (Rattus norvegicus, UniProt P31424)
T1 construct: expressed in transfected cells; host or cells: human embryonic kidney (HEK) cells
Test: potentiation of mGluR5 response to glutamate, Ca2+ fluorescence (FDSS) in HEK cells transfected with rat mGluR5
Type: cell-based
Details: for EC50: read-out: EC50
Procedure: Human embryonic kidney (HEK) cells transfected with rat mGluR5 were plated in clear bottom assay plates for assay in a Functional Drug Screening System (FDSS). The cells were loaded with a Ca^2+-sensitive fluorescent dye (e.g., Fluo-4), and the plates were washed and placed in the FDSS instrument. After establishment of a fluorescence baseline for twelve seconds, the compounds of the present invention were added to the cells, and the response in cells was measured. Five minutes later, an mGluR5 agonist (e.g., glutamate, 3,5-dihydroxyphenylglycine, or quisqualate) was added to the cells, and the response of the cells was measured. Potentiation of the agonist response of mGluR5 by the compounds in the present invention was observed as an increase in response to non-maximal concentrations of agonist (here, glutamate) in the presence of compound compared to the response to agonist in the absence of compound.
The above described assay operated in two modes. In the first mode, a range of concentrations of the present compounds were added to cells, followed by a single fixed concentration of agonist. If a compound acted as a potentiator, an EC50 value for potentiation and a maximum extent of potentiation by the compound at this concentration of agonist was determined by non-linear curve fitting. In the second mode, several fixed concentrations of the present compounds were added to various wells on a plate, followed by a range of concentrations of agonist for each concentration of present compound; the EC50 values for the agonist at each concentration of compound were determined by non-linear curve fitting. A decrease in the EC50 value of the agonist with increasing concentrations of the present compounds (a leftward shift of the agonist concentration-response curve) is an indication of the degree of mGluR5 potentiation at a given concentration of the present compound. An increase in the EC50 value of the agonist with increasing concentrations of the present compounds (a rightward shift of the agonist concentration-response curve) is an indication of the degree of mGluR5 antagonism at a given concentration of the present compound. The second mode also indicates whether the present compounds also affect the maximum response to mGluR5 to agonists.
Human embryonic kidney (HEK) cells transfected with rat mGluR5 were plated in clear-bottomed, poly-D-lysine-coated assay plates in glutamate-glutamine-free medium growth and incubated overnight at 37° C. in 5% CO2. The following day, cells were loaded with 2 μM calcium indicator dye, fluo-4 AM, for 1 h at 37° C. Dye was removed and replaced with assay buffer containing 1× Hanks balanced salt solution (Invitrogen, Carlsbad, Calif.), 20 mM HEPES, and 2.5 mM probenecid, pH 7.4. Cell plates were then loaded into the Functional Drug Screening System 6000 (FDSS 6000, Hamamatsu, Japan). After establishment of a fluorescence baseline for twelve seconds, the compounds of the present invention were added to the cells, and the response in cells was measured. Five minutes later, an mGluR5 agonist (e.g., glutamate, 3,5-dihydroxyphenylglycine, or quisqualate) was added to the cells, and the response of the cells was measured during a 1 minute incubation with agonists. Typically, the effect of test compounds of the present invention was on an EC20 concentration of glutamate was measured. All test compounds were dissolved and diluted in 100% DMSO and then serially diluted into assay buffer for a 2.5× stock in 0.25% DMSO; stock compounds were then added to the assay for a final DMSO concentration of 0.1%. Calcium fluorescence measures were recorded as fold over basal fluorescence; raw data was then normalized to the maximal response to agonist. Potentiation of the agonist response of mGluR5 by the compounds in the present invention was observed as an increase in response to non-maximal concentrations of agonist (here, glutamate) in the presence of compound compared to the response to agonist in the absence of compound. […]

[1] = HEK293, read-out: % Glu Max, maximum extent of potentiation, normalized to maximal response to glutamate, SAR tables
[2] = Table 1, EC50 for potentiating the mGluR5 receptor, unit inferred
[3] = potentiation of glutamate response, HEK cells transfected with rat mGluR5, SAR tables
[4] = HEK293, maximum extent of potentiation, normalized to maximal response to glutamate, SAR tables, read-out: % Glu Max

T1 sequence (P31424 21-1203): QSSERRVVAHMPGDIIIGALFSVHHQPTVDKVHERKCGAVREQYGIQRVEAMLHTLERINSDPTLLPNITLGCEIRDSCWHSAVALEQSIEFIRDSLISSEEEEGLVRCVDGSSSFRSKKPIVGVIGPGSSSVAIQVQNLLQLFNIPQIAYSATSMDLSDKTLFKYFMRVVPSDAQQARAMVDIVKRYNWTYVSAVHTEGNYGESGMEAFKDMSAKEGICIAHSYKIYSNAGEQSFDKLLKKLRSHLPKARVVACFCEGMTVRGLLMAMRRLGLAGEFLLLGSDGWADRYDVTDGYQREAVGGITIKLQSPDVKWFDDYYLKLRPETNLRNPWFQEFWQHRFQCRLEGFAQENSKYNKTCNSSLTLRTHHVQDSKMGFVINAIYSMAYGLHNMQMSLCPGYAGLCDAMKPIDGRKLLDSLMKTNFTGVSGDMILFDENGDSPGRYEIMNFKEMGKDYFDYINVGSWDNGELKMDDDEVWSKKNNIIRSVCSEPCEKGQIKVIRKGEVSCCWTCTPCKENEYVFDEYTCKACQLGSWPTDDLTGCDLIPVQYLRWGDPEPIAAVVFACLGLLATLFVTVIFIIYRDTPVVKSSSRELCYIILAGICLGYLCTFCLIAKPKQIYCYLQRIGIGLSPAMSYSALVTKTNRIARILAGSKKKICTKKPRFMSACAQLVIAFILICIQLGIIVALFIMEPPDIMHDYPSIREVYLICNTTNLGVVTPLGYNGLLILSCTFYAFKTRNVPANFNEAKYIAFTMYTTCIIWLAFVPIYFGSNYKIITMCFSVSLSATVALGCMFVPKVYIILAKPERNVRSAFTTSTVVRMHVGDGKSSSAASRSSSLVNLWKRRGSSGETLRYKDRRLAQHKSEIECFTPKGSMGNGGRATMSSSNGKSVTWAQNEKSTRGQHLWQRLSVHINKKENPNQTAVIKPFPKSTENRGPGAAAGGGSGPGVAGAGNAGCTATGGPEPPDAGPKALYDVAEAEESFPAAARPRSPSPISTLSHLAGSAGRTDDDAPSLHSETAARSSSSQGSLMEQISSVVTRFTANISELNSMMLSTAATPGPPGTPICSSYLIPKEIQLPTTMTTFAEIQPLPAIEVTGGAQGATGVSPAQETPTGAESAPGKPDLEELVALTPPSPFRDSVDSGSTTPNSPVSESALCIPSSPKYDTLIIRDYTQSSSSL

| SMILES | Emax [1] [%] | EC50 [2] [nM] | EC50 [3] [nM] | Emax [4] [%] | EC50 (nM) [3] |
| --- | --- | --- | --- | --- | --- |
| CC1(O)CCN(C(=O)c2ccc(C#Cc3ccccc3)cc2)CC1 [Compound 7a, (4-hydroxy-4-methylpiperidin-1-yl)(4-(phenylethynyl)phenyl)methanone] | 82.5 | 39.4 | 3.5 |  |  |
| CC(C)C1(O)CCN(C(=O)c2ccc(C#Cc3ccccc3)cc2)CC1 [Compound 7c, (4-hydroxy-4-isopropylpiperidin-1-yl)(4-(phenylethynyl)phenyl)methanone] | 89.1 | 1800 | 1770 |  |  |
| O=C(c1ccc(C#Cc2ccccc2)cc1)N1CCC(O)(c2cccs2)CC1 [Compound 7d, (4-hydroxy-4-(thiophen-2-yl)piperidin-1-yl)(4-(phenylethynyl)phenyl)methanone] | 95 | 1070 | 1000 |  |  |
| O=C(c1ccc(C#Cc2ccccc2)cc1)N1CCC(O)(c2ccc(F)cc2)CC1 [Compound 7e] | 87 |  | 1190 |  |  |
| O=C(c1ccc(C#Cc2ccccc2)cc1)N1CCC(O)(c2cccc(F)c2)CC1 [Compound 7f] | 92 |  | 1600 |  |  |
| COc1ccc(C2(O)CCN(C(=O)c3ccc(C#Cc4ccccc4)cc3)CC2)cc1 [Compound 7g] | 91 |  | 2450 |  |  |
| O=C(c1ccc(C#Cc2ccccc2)cc1)N1CC(O)C1 [Compound 9a, (3-hydroxyazetidin-1-yl)(4-(phenylethynyl)phenyl)methanone] |  | 314 | 212 | 67.3 |  |
| CC1(O)CN(C(=O)c2ccc(C#Cc3ccccc3)cc2)C1 [Compound 9b, (3-hydroxy-3-methylazetidin-1-yl)(4-(phenylethynyl)phenyl)methanone] |  | 119 | 89 | 82 |  |
| CCCC1(O)CN(C(=O)c2ccc(C#Cc3ccccc3)cc2)C1 [Compound 9c, (3-hydroxy-3-propylazetidin-1-yl)(4-(phenylethynyl)phenyl)methanone] |  | 500 | 423 | 59.8 |  |
| O=C(c1ccc(C#Cc2ccccc2)cc1)N1CC(O)(c2cccs2)C1 [Compound 9d, (3-hydroxy-3-(thiophen-2-yl)azetidin-1-yl)(4-(phenylethynyl)phenyl)methanone] |  | 1710 | 1470 | 43.7 |  |
| O=C(c1ccc(C#Cc2ccccc2F)cc1)N1CCC(O)CC1 [Compound 19a, (4-((2-fluorophenyl)ethynyl)phenyl)(4-hydroxypiperidin-1-yl)methanone] |  | 28.1 | 27.3 | 80 |  |
| O=C(c1ccc(C#Cc2cccc(F)c2)cc1)N1CCC(O)CC1 [Compound 19b, (4-((3-fluorophenyl)ethynyl)phenyl)(4-hydroxypiperidin-1-yl)methanone] |  | 3.25 | 3.25 | 77 |  |
| O=C(c1ccc(C#Cc2ccc(F)cc2)cc1)N1CCC(O)CC1 [Compound 19c, (4-((4-fluorophenyl)ethynyl)phenyl)(4-hydroxypiperidin-1-yl)methanone] |  | 15.2 | 14.7 | 63 |  |
| O=C(c1ccc(C#Cc2ccc(F)c(F)c2)cc1)N1CCC(O)CC1 [Compound 19d, (4-((3,4-difluorophenyl)ethynyl)phenyl)(4-hydroxypiperidin-1-yl)methanone] |  | 73.9 | 68.7 | 52 |  |
| O=C(c1ccc(C#Cc2cc(F)cc(F)c2)cc1)N1CCC(O)CC1 [Compound 19e, (4-((3,5-difluorophenyl)ethynyl)phenyl)(4-hydroxypiperidin-1-yl)methanone] |  | 1000 | 593 | 67 |  |
| Cc1cc(C#Cc2ccc(C(=O)N3CCC(O)CC3)cc2)ccc1F [Compound 19f, (4-((4-fluoro-3-methylphenyl)ethynyl)phenyl)(4-hydroxypiperidin-1-yl)methanone] |  | 832 | 500 | 76 |  |
| O=C(c1ccc(C#Cc2ccc(F)cc2F)cc1)N1CCC(O)CC1 [Compound 19g, (4-((2,4-difluorophenyl)ethynyl)phenyl)(4-hydroxypiperidin-1-yl)methanone] |  | 2030 | 1970 | 58 |  |
| Cc1ccc(C#Cc2ccc(C(=O)N3CCC(O)CC3)cc2)cc1 [Compound 19h] |  |  |  |  | inactive |
| O=C(c1ccc(C#Cc2cccc(C(F)(F)F)c2)cc1)N1CCC(O)CC1 [Compound 19i, (4-hydroxypiperidin-1-yl)(4-((3-(trifluoromethyl)phenyl)ethynyl)phenyl)methanone] |  | 2210 | 2060 | 68 |  |
| O=C(c1ccc(C#Cc2ccccn2)cc1)N1CCC(O)CC1 [Compound 19k] |  | 2450 | 2210 | 49 |  |
| O=C(c1ccc(C#CC2CCCCC2)cc1)N1CCC(O)CC1 [Compound 19m, (4-(cyclohexylethynyl)phenyl)(4-hydroxypiperidin-1-yl)methanone] |  | 1870 | 1790 | 77 |  |
| CC1(O)CCN(C(=O)c2ccc(C#Cc3ccccc3F)cc2)CC1 [Compound 20a, (4-((2-fluorophenyl)ethynyl)phenyl)(4-hydroxy-4-methylpiperidin-1-yl)methanone] |  | 37.9 | 34.9 | 86 |  |
| CC1(O)CCN(C(=O)c2ccc(C#Cc3cccc(F)c3)cc2)CC1 [Compound 20b, (4-((3-fluorophenyl)ethynyl)phenyl)(4-hydroxy-4-methylpiperidin-1-yl)methanone] |  | 20.6 | 19.4 | 92 |  |
| CC1(O)CCN(C(=O)c2ccc(C#Cc3ccc(F)cc3)cc2)CC1 [Compound 20c, (4-((4-fluorophenyl)ethynyl)phenyl)(4-hydroxy-4-methylpiperidin-1-yl)methanone] |  | 54.2 | 39.4 | 91 |  |
| CC1(O)CCN(C(=O)c2ccc(C#Cc3ccc(F)c(F)c3)cc2)CC1 [Compound 20d, (4-((3,4-difluorophenyl)ethynyl)phenyl)(4-hydroxy-4-methylpiperidin-1-yl)methanone] |  | 156 | 137 | 91 |  |
| O=C(c1ccc(C#Cc2ccccc2F)cc1)N1CCC(CO)CC1 [Compound 20e, (4-((2-fluorophenyl)ethynyl)phenyl)(4-(hydroxymethyl)piperidin-1-yl)methanone] |  | 23.6 | 20.6 | 88 |  |
| O=C(c1ccc(C#Cc2cccc(F)c2)cc1)N1CCC(CO)CC1 [Compound 20f, (4-((3-fluorophenyl)ethynyl)phenyl)(4-(hydroxymethyl)piperidin-1-yl)methanone] |  | 11.9 | 11.9 | 86 |  |
| O=C(c1ccc(C#Cc2ccc(F)cc2)cc1)N1CCC(CO)CC1 [Compound 20g, (4-((4-fluorophenyl)ethynyl)phenyl)(4-(hydroxymethyl)piperidin-1-yl)methanone] |  | 26.1 | 24.7 | 95 |  |
| O=C(c1ccc(C#Cc2ccc(F)c(F)c2)cc1)N1CCC(CO)CC1 [Compound 20h, (4-((3,4-difluorophenyl)ethynyl)phenyl)(4-(hydroxymethyl)piperidin-1-yl)methanone] |  | 81.7 | 76.3 | 104 |  |
| O=C(c1ccc(C#Cc2ccccc2F)cc1)N1CCOCC1 [Compound 20i, (4-((2-fluorophenyl)ethynyl)phenyl)(morpholino)methanone] |  | 12 | 12 | 105 |  |
